Assay results published in patent publication US8802597B2, “Herbicidal pyrimidines” (E I du Pont de Nemours and Company, priority 2003, dated 2014).
Read-outs that look alike come from different tables or passages of the source.

Key:
Experiment in all cases: Test C pre/postemergence
Assay type in all cases: in vivo
corn (Zea mays) = conditions: Zea mays, pre-emergence, Preemergence, scale 0 to 100
Outline: (§1)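 Greenhouse herbicide screen, visual readout. Compound in solvent/surfactant applied preemergence at planting or postemergence to 1- to 4-leaf plants; assessed at 12–14 days on a 0–100 control scale.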

[1] = system: woolly cupgrass (Eriochloa villosa); conditions: Eriochloa villosa; for pest or weed control at 62 g/ha: 62 g ai/ha; for pest or weed control at 125 g/ha: 125 g ai/ha; for pest or weed control at 250 g/ha: 250 g ai/ha; for pest or weed control at 500 g/ha: 500 g ai/ha
Outline: as §1

[2] = system: pigweed (Amaranthus retroflexus); conditions: Amaranthus retroflexus; for pest or weed control at 62 g/ha: 62 g ai/ha; for pest or weed control at 125 g/ha: 125 g ai/ha; for pest or weed control at 250 g/ha: 250 g ai/ha; for pest or weed control at 500 g/ha: 500 g ai/ha
Outline: as §1

[3] = system: Surinam grass (Brachiaria decumbens); conditions: Urochloa decumbens; for pest or weed control at 125 g/ha: 125 g ai/ha; for pest or weed control at 500 g/ha: 500 g ai/ha; for pest or weed control at 62 g/ha: 62 g ai/ha; for pest or weed control at 250 g/ha: 250 g ai/ha
Outline: as §1

[4] = system: bermudagrass (Cynodon dactylon); conditions: Cynodon dactylon; for pest or weed control at 62 g/ha: 62 g ai/ha; for pest or weed control at 125 g/ha: 125 g ai/ha; for pest or weed control at 125 g/ha / pest or weed control at 250 g/ha / pest or weed control at 500 g/ha: scale 0 to 100; for pest or weed control at 250 g/ha: 250 g ai/ha; for pest or weed control at 500 g/ha: 500 g ai/ha
Outline: as §1

[5] = system: morningglory (Ipomoea coccinea); conditions: Ipomoea; for pest or weed control at 62 g/ha: 62 g ai/ha; for pest or weed control at 125 g/ha: 125 g ai/ha; for pest or weed control at 250 g/ha: 250 g ai/ha; for pest or weed control at 500 g/ha: 500 g ai/ha
Outline: as §1

[6] = post-emergence, Postemergence, scale 0 to 100 (0 no effect, 100 complete control), read-out: Cupgrass, Woolly plant response rating
[7] = post-emergence, Postemergence, scale 0 to 100, read-out: Plant response rating, Cupgrass, Woolly
[8] = pre-emergence, Preemergence, scale 0 to 100, read-out: Plant response rating, Cupgrass, Woolly
[9] = post-emergence, Postemergence, scale 0 to 100 (0 no effect, 100 complete control), read-out: Pigweed plant response rating
[10] = post-emergence, Postemergence, scale 0 to 100, read-out: Plant response rating, Pigweed
[11] = pre-emergence, Preemergence, scale 0 to 100, read-out: Plant response rating, Pigweed
[12] = post-emergence, Postemergence, scale 0 to 100 (0 no effect, 100 complete control), read-out: Surinam Grass plant response rating
[13] = post-emergence, Postemergence, scale 0 to 100, read-out: Plant response rating, Surinam Grass
[14] = pre-emergence, Preemergence, scale 0 to 100, read-out: Plant response rating, Surinam Grass
[15] = post-emergence, Postemergence, read-out: Plant response rating, Bermudagrass
[16] = pre-emergence, Preemergence, read-out: Plant response rating, Bermudagrass
[17] = post-emergence, Postemergence, scale 0 to 100 (0 no effect, 100 complete control), read-out: Morningglory plant response rating
[18] = post-emergence, Postemergence, scale 0 to 100, read-out: Plant response rating, Morningglory
[19] = pre-emergence, Preemergence, scale 0 to 100, read-out: Plant response rating, Morningglory

SMILES: Nc1nc(C2CC2)nc(C(=O)O)c1Br [Compound 8]
- Corn plant response rating (crop injury, 0 = no effect, 100 = complete kill) at 250 g/ha (corn (Zea mays); 250 g ai/ha): 10%
- Corn plant response rating (crop injury, 0 = no effect, 100 = complete kill) at 500 g/ha (corn (Zea mays); 500 g ai/ha): 75%
- pest or weed control at 62 g/ha [1, 6]: 30%
- pest or weed control at 125 g/ha [1, 6]: 60%
- pest or weed control at 250 g/ha [1, 7]: 75%
- pest or weed control at 500 g/ha [1, 7]: 85%
- pest or weed control at 62 g/ha ([1]; pre-emergence, Preemergence, scale 0 to 100, 0 no effect, 100 complete control, read-out: Plant response rating, Cupgrass, Woolly): 0%
- pest or weed control at 125 g/ha [1, 8]: 65%
- pest or weed control at 250 g/ha [1, 8]: 100%
- pest or weed control at 500 g/ha [1, 8]: 100%
- pest or weed control at 62 g/ha [2, 9]: 70%
- pest or weed control at 125 g/ha [2, 9]: 75%
- pest or weed control at 250 g/ha [2, 10]: 100%
- pest or weed control at 500 g/ha [2, 10]: 100%
- pest or weed control at 62 g/ha ([2]; pre-emergence, Preemergence, scale 0 to 100, 0 no effect, 100 complete control, read-out: Plant response rating, Pigweed): 65%
- pest or weed control at 125 g/ha [2, 11]: 85%
- pest or weed control at 250 g/ha [2, 11]: 90%
- pest or weed control at 500 g/ha [2, 11]: 95%
- pest or weed control at 125 g/ha [3, 12]: 65%
- pest or weed control at 500 g/ha [3, 13]: 80%
- pest or weed control at 62 g/ha [3, 12]: 40%
- pest or weed control at 250 g/ha [3, 13]: 70%
- pest or weed control at 62 g/ha ([3]; pre-emergence, Preemergence, scale 0 to 100, 0 no effect, 100 complete control, read-out: Plant response rating, Surinam Grass): 0%
- pest or weed control at 125 g/ha [3, 14]: 100%
- pest or weed control at 250 g/ha [3, 14]: 100%
- pest or weed control at 500 g/ha [3, 14]: 100%
- pest or weed control at 62 g/ha ([4]; post-emergence, Postemergence, scale 0 to 100 (0 no effect, 100 complete control), read-out: Bermudagrass plant response rating): 50%
- pest or weed control at 125 g/ha [4, 15]: 60%
- pest or weed control at 250 g/ha [4, 15]: 65%
- pest or weed control at 500 g/ha [4, 15]: 75%
- pest or weed control at 62 g/ha ([4]; pre-emergence, Preemergence, scale 0 to 100, 0 no effect, 100 complete control, read-out: Plant response rating, Bermudagrass): 100%
- pest or weed control at 125 g/ha [4, 16]: 100%
- pest or weed control at 250 g/ha [4, 16]: 100%
- pest or weed control at 500 g/ha [4, 16]: 100%
- pest or weed control at 62 g/ha [5, 17]: 95%
- pest or weed control at 125 g/ha [5, 17]: 95%
- pest or weed control at 250 g/ha [5, 18]: 100%
- pest or weed control at 500 g/ha [5, 18]: 100%
- pest or weed control at 62 g/ha ([5]; pre-emergence, Preemergence, scale 0 to 100, 0 no effect, 100 complete control, read-out: Plant response rating, Morningglory): 20%
- pest or weed control at 125 g/ha [5, 19]: 100%
- pest or weed control at 250 g/ha [5, 19]: 100%
- pest or weed control at 500 g/ha [5, 19]: 100%
